Calls of active or inactive are those of the source. The calls are words filed in the database; no cut-off is given here.

For data set [1], the species on record is Danio rerio. Briefly: prevention of heart failure in verapamil treated zebrafish AB assessed as efficacy on venous congestion at 0.5 ug/ml preincubated for 4.5 hrs followed by verapamil treatment and measured after 30 mins relative to verapamil alone. It counts as functional.
The species named for data set [2] is Danio rerio. Briefly: Prevention of heart failure in verapamil treated zebrafish AB assessed as efficacy on heart dilation at 0.5 ug/ml preincubated for 4.5 hrs followed by verapamil treatment and measured after 30 mins relative to verapamil alone. It counts as functional.
For data set [3], the species on record is Danio rerio. Briefly: prevention of heart failure in verapamil treated zebrafish AB assessed as efficacy on blood flow velocity at 0.5 ug/ml preincubated for 4.5 hrs followed by verapamil treatment and measured after 30 mins relative to verapamil alone. It counts as functional.
The species named for data set [4] is Danio rerio. Briefly: prevention of heart failure in verapamil treated zebrafish AB assessed as efficacy on cardiac output at 0.5 ug/ml preincubated for 4.5 hrs followed by verapamil treatment and measured after 30 mins relative to verapamil alone. It counts as functional.
The species entered for data set [5] is Danio rerio. Briefly: Prevention of heart failure in verapamil treated zebrafish AB assessed as efficacy on heart dilation at 10 ug/ml preincubated for 4.5 hrs followed by verapamil treatment and measured after 30 mins relative to verapamil alone. Type of data set: functional.
For data set [6], the species on record is Danio rerio. Briefly: prevention of heart failure in verapamil treated zebrafish AB assessed as efficacy on cardiac output at 10 ug/ml preincubated for 4.5 hrs followed by verapamil treatment and measured after 30 mins relative to verapamil alone. Type of data set: functional.
The species entered for data set [7] is Danio rerio. Briefly: prevention of heart failure in verapamil treated zebrafish AB assessed as efficacy on venous congestion at 10 ug/ml preincubated for 4.5 hrs followed by verapamil treatment and measured after 30 mins relative to verapamil alone. It counts as functional.
The species named for data set [8] is Danio rerio. Briefly: prevention of heart failure in verapamil treated zebrafish AB assessed as efficacy on blood flow velocity at 10 ug/ml preincubated for 4.5 hrs followed by verapamil treatment and measured after 30 mins relative to verapamil alone. It counts as functional.
The species named for data set [9] is Danio rerio. Briefly: Prevention of heart failure in verapamil treated zebrafish AB assessed as efficacy on heart dilation at 0.8 ug/ml preincubated for 4.5 hrs followed by verapamil treatment and measured after 30 mins relative to verapamil alone. Type of data set: functional.
Data set [10] is filed under the species Danio rerio. Briefly: prevention of heart failure in verapamil treated zebrafish AB assessed as efficacy on venous congestion at 0.8 ug/ml preincubated for 4.5 hrs followed by verapamil treatment and measured after 30 mins relative to verapamil alone. It counts as functional.
The species named for data set [11] is Danio rerio. Briefly: prevention of heart failure in verapamil treated zebrafish AB assessed as efficacy on blood flow velocity at 0.8 ug/ml preincubated for 4.5 hrs followed by verapamil treatment and measured after 30 mins relative to verapamil alone. It counts as functional.
For data set [12], the species on record is Danio rerio. Briefly: prevention of heart failure in verapamil treated zebrafish AB assessed as efficacy on cardiac output at 0.8 ug/ml preincubated for 4.5 hrs followed by verapamil treatment and measured after 30 mins relative to verapamil alone. It counts as functional.
Data set [13] is filed under the species Danio rerio. Briefly: prevention of heart failure in verapamil treated zebrafish AB assessed as efficacy on heart rate at 0.8 ug/ml preincubated for 4.5 hrs followed by verapamil treatment and measured after 30 mins relative to verapamil alone. It counts as functional.
Data set [14] can be described thus: Toxicity in zebrafish assessed as induction of adverse effect at 0.5 ug/ml in presence of ponatinib. On the set-up: species or system Danio rerio. Conditions: in vivo.
The species entered for data set [15] is Danio rerio. Briefly: Prevention of heart failure in verapamil treated zebrafish AB assessed as efficacy on heart dilation preincubated for 4.5 hrs followed by verapamil treatment and measured after 30 mins. Type of data set: functional, organism-based.
The nature of data set [16]: Toxicity in zebrafish assessed as induction of adverse effect at 0.5 ug/ml in presence of verapamil. On the set-up: species or system Danio rerio. Conditions: in vivo.
Data set [17] can be described thus: Toxicity in zebrafish assessed as induction of adverse effect at 0.5 ug/ml. On the set-up: species or system Danio rerio. Conditions: in vivo.
The species entered for data set [18] is Danio rerio. Briefly: prevention of heart failure in verapamil treated zebrafish AB assessed as efficacy on heart rate at 0.5 ug/ml preincubated for 4.5 hrs followed by verapamil treatment and measured after 30 mins relative to verapamil alone. It counts as functional.
The species entered for data set [19] is Danio rerio. Briefly: Antithrombotic activity in ponatinib treated zebrafish AB assessed as preventive efficacy on thrombosis at 0.5 ug/ml incubated for 18 hrs by O-dianisidine staining based assay relative to ponatinib alone. It counts as functional.
A short description of data set [20]: Toxicity in zebrafish assessed as effect on blood flow at 0.5 ug/ml in presence of verapamil. On the set-up: species or system Danio rerio. To be noted: in vivo.
A short description of data set [21]: Toxicity in zebrafish assessed as effect on blood flow at 0.5 ug/ml in presence of ponatinib. On the set-up: species or system Danio rerio. To be noted: in vivo.
The species named for data set [22] is Danio rerio. Briefly: Antithrombotic activity in ponatinib treated zebrafish AB assessed as preventive efficacy on thrombosis at 45 ug/ml incubated for 18 hrs by O-dianisidine staining based assay relative to ponatinib alone. It counts as functional.

In the case of `COCCc1ccc(OCC(O)CNC(C)C)cc1` (configuration not stated) [METOPROLOL], the Activity in the data set filed under Danio rerio [1] is reported as 29%; in the data set filed under Danio rerio [2], 34%; in the data set filed under Danio rerio [3] it was 17%; in the data set listed under Danio rerio [4], 35%.
In the case of `CCOC(=O)[C@H](CCc1ccccc1)N[C@@H](C)C(=O)N1CCC[C@H]1C(=O)O` [ENALAPRIL], the Activity in the data set listed under Danio rerio [5] is 31%; in the data set filed under Danio rerio [6] it was 34%; in the data set listed under Danio rerio [7], 34%; in the data set filed under Danio rerio [8], 26%.
Take `C[C@H]1O[C@@H](O[C@H]2[C@@H](O)C[C@H](O[C@H]3[C@@H](O)C[C@H](O[C@H]4CC[C@@]5(C)[C@H](CC[C@@H]6[C@@H]5C[C@@H](O)[C@]5(C)[C@@H](C7=CC(=O)OC7)CC[C@]65O)C4)O[C@@H]3C)O[C@@H]2C)C[C@H](O)[C@@H]1O` [DIGOXIN]: the Activity came out at 68% in the data set listed under Danio rerio [9]; 73% in the data set listed under Danio rerio [1]; 53% in the data set filed under Danio rerio [2]; 28% in the data set listed under Danio rerio [3]; 67% in the data set filed under Danio rerio [10]; 38% in the data set listed under Danio rerio [11]. Also, the Activity in the data set listed under Danio rerio [12] was found to be 41%; in the data set listed under Danio rerio [13], 52%; in the data set filed under Danio rerio [4], 40%.
On to `C=C(CCC=C(CO)CO)[C@@H]1CC[C@]2(C)[C@@H]1CC[C@@H]1[C@@]3(C)CCC(=O)C(C)(C)[C@@H]3CC[C@]12C`, for which the Activity entry in data set [14], in data set [16] and in data set [17] was “Non-Toxic” each time. Moreover, the result in the data set filed under Danio rerio [15] was inactive.
Regarding `C=C([C@@H]1CC=C(C)C(=O)O1)[C@@H]1CC[C@]2(C)[C@@H]1CC[C@@H]1[C@@]34CO[C@](O)(C[C@H]3O)C(C)(C)[C@@H]4CC[C@]12C`, the Activity result in data set [14] is on record as “Non-Toxic”; in the data set filed under Danio rerio [1] it was 51%; in the data set listed under Danio rerio [2], 66%; in the data set filed under Danio rerio [3], 65%; in the data set listed under Danio rerio [18], 60%; in the data set listed under Danio rerio [4], 58%. Also, the Activity entry in data set [16] is listed as “Non-Toxic”; in data set [17] it was “Non-Toxic”; in the data set filed under Danio rerio [19], 68%.
Turning to `C=C([C@@H]1CC=C(C)C(=O)O1)[C@@H]1CC[C@]2(C)[C@@H]1CC[C@@H]1[C@@]3(C)CCC(=O)C(C)(C)[C@@H]3CC[C@]12C`, the Activity result is given as “Non-Toxic” in data set [14]; 23% in the data set filed under Danio rerio [1]; 55% in the data set listed under Danio rerio [2]; 67% in the data set filed under Danio rerio [3]; 27% in the data set filed under Danio rerio [18]; 41% in the data set listed under Danio rerio [4]. For the same compound, the Activity result in data set [16] is recorded as “Non-Toxic”; in data set [17], “Non-Toxic”; in the data set filed under Danio rerio [19], 65%.
In the case of `C/C(=C/CC/C(CO)=C1\CC[C@]2(C)[C@@H]1CC[C@@H]1[C@@]3(C)CCC(=O)C(C)(C)[C@@H]3CC[C@]12C)CO`, the Activity entry in data set [14], in [16] and in data set [17] was “Non-Toxic” throughout. In addition, the result in the data set listed under Danio rerio [15] was inactive.
Turning to `C=C([C@@H]1CC=C(C)C(=O)O1)[C@@H]1CC[C@]2(C)[C@@H]1CC[C@@H]1[C@]34CC[C@@](O)(OC3)C(C)(C)[C@@H]4CC[C@]12C`, the Activity entry in data set [20] is “Toxic”; in [21] it was “Toxic”; in [17], “Non-Toxic”.
For `C=C(CC/C=C(/C)C(=O)O)[C@@H]1CC[C@]2(C)[C@@H]1CC[C@@H]1[C@]34CC[C@@](O)(OC3)C(C)(C)[C@@H]4CC[C@]12C`, the Activity entry in [14] is recorded as “Non-Toxic”; in the data set filed under Danio rerio [1], 62%; in the data set filed under Danio rerio [2] it was 65%; in the data set listed under Danio rerio [3] it was 83%; in the data set listed under Danio rerio [18], 77%; in the data set listed under Danio rerio [4], 72%. The Activity result in [16] is listed as “Non-Toxic”; in data set [17] it was “Non-Toxic”; in the data set filed under Danio rerio [19], 24%.
In the case of `NS(=O)(=O)c1cc2c(cc1Cl)NCNS2(=O)=O` [HYDROCHLOROTHIAZIDE], the Activity in the data set filed under Danio rerio [1] is reported as 60%; in the data set listed under Danio rerio [2], 56%; in the data set listed under Danio rerio [3], 33%; in the data set filed under Danio rerio [4], 53%.
As for `C=C([C@@H]1CC[C@]2(C)[C@@H]1CC[C@@H]1[C@]34CC[C@@](O)(OC3)C(C)(C)[C@@H]4CC[C@]12C)[C@@H]1OC(=O)C(C)=C[C@H]1O`, the Activity result was “Non-Toxic” in data set [14]; 59% in the data set filed under Danio rerio [1]; 63% in the data set filed under Danio rerio [2]; 65% in the data set listed under Danio rerio [3]; 54% in the data set listed under Danio rerio [18]; 64% in the data set filed under Danio rerio [4]. For the same compound, the Activity entry in data set [16] was “Non-Toxic”; in data set [17], “Non-Toxic”; in the data set filed under Danio rerio [19], 10%.
With `CC(=O)Oc1ccccc1C(=O)O` [ASPIRIN], in the data set filed under Danio rerio [22], the Activity is 86%.
For the compound `CCCCC1=NC2(CCCC2)C(=O)N1Cc1ccc(-c2ccccc2-c2nnn[nH]2)cc1` [IRBESARTAN], the Activity in the data set filed under Danio rerio [1] was 36%; in the data set listed under Danio rerio [2], 30%; in the data set filed under Danio rerio [3] it was 15%; in the data set filed under Danio rerio [4] it was 25%.
With `C=C([C@@H]1CC=C(C)C(=O)O1)[C@@H]1CC[C@]2(C)[C@@H]1CC[C@@H]1[C@@]34CO[C@](O)([C@@H](O)C3)C(C)(C)[C@@H]4CC[C@]12C`, the Activity result in data set [14] is on record as “Non-Toxic”; in the data set filed under Danio rerio [1], 31%; in the data set listed under Danio rerio [2], 73%; in the data set listed under Danio rerio [3] it was 27%; in the data set listed under Danio rerio [18], 57%; in the data set listed under Danio rerio [4] it was 22%. For the same compound, the values for the Activity entry (in [16]; in data set [17]; in the data set listed under Danio rerio [19]) were “Non-Toxic”, “Non-Toxic” and 76%, respectively.
